Experimental data from PubChem BioAssay AID2060626 (Molecular Pharmacology Branch, DTP, NCI, 2025).

Test system: 168753-222-R-J1-PDC complex spheroid viability
Assay: Anticancer human tumor 168753-222-R-J1-PDC patient-derived bladder carcinoma cell line growth inhibition [CLK]
Details: for IC50: curve of first compound; for viability, T/C: stronger effect = lower value
Excerpt: A high-throughput screen of multi-cell type tumor spheroids was designed to identify active combinations of […] and targeted small molecules. Complex spheroids include a stromal component modeled by human endothelial cells (HUVEC) and fibroblasts modeled by human mesenchymal stem cells (MSCs). The concentration ranges selected for each drug and investigational agent were based upon clinically achievable concentrations if the clinical Cmax of the agent was known.
Compounds. The drugs and investigational agents: cirtuvivint (SM08502; NSC835563), CC-671 (NSC850746), vemurafenib (NSC761431), tapotoclax (NSC804041), sotorasib (NSC818433), adagrasib (NSC831453), MRTX-1133 (NSC836407), BAY2416964 (NSC825713), copanlisib (NSC816437), inavolisib (NSC800729), abemaciclib (NSC768073), osimertinib (NSC779217), entinostat (NSC756642), eltanexor (KPT-8602, NSC794443), venetoclax (NSC766270), ceralasertib (NSC777638), bortezomib (NSC756655), olaparib (NSC753686), talazoparib (NSC767125), alisertib (NSC759677), peposertib (NSC802822), gemcitabine (NSC613327), 5-fluorouracil (NSC19893), SN-38 (NSC673596), oxaliplatin (NSC266046), paclitaxel (NSC125973), and doxorubicin (NSC123127), were obtained from the National Cancer Institute (NCI) Developmental Therapeutics Program Chemical Repository. The FDA-approved anticancer drug set is available from the Developmental Therapeutics Program at https://dtp.cancer.gov/organization/dscb/obtaining/available plates.htm. […] The stock solutions were prepared in dimethyl sulfoxide (DMSO, Sigma-Aldrich, St. Louis, MO, cat. D2650), except for the platinum complexes which were prepared in saline (Quality Biological, Gaithersburg, MD, cat. 114-055-101), at 800-fold the tested concentration and stored at -70 degrees C prior to their use. All drugs and investigational agents were tested over a range starting from a high concentration at or near the clinical Cmax and decreasing in half-log increments. If the clinical Cmax for an agent had not been determined, the highest concentration tested was 10 microM.
Cell Culture. All cells were maintained in an incubator at 37 degrees C and 5% CO2 with 95% humidity. The PDC lines were cultured according to standard operating procedures established by the NCI PDMR. Briefly, all PDCs were thawed and cultured in Matrigel-coated flasks prepared with a working solution of 1X Ham's F-12 nutrient mix, without supplementation (Invitrogen, Waltham, MA, cat. 11765054), 100 U/mL penicillin-streptomycin (Invitrogen, cat. 15140122), and 2.5% Matrigel (Corning Inc., Corning, NY, cat. 354248) for the first three passages. The 947758-054-R-J2-PDC line was cultured in 6B/Colon 1A media, which includes advanced DMEM/F-12 (Thermo Fisher Scientific, cat. 12634028), 10 mM HEPES (Thermo Fisher Scientific, cat. 15630080), 1X GlutaMAX supplement (Thermo Fisher Scientific, cat. 35050061), 0.1 mg/mL primocin (InvivoGen, cat. ant-pm-2), 10% defined fetal bovine serum, heat inactivated (HyClone Laboratories Inc., cat. SH30070.03HI), 1.25 mM N-Acetyl-L-cysteine (Sigma-Aldrich, cat. A9165), 10 mM nicotinamide (Sigma-Aldrich, cat. N0636), 1X B-27 supplement (Thermo Fisher Scientific, cat. 17504044), 1X N-2 supplement (Thermo Fisher Scientific, cat. 17502048), and 10 microM Y-27632 dihydrochloride (Tocris Bioscience, cat. 1254). The 876862-298-R-J1-PDC was cultured in 6E media, which includes all 6B/Colon 1A media components plus 50% L-WRN conditioned media (ATCC, cat. CRL-3276), 50 ng/mL recombinant human EGF recombinant protein (hEGF; Thermo Fisher Scientific, cat. PHG0311), 10 ng/mL recombinant human fibroblast growth factor 10 (hGFG-10; PeproTech, cat. 100-26), 1 ng/mL recombinant human fibroblast growth factor 2 (hFGF-2; PeproTech, cat. 100-18B), and 1 µM prostaglandin E2 (PGE2; Tocris, cat. 2296). The 227483-062-R1-J1-PDC line was cultured in Panc media, containing all 6E components except hFGF-2, with the addition of 500 nM SB-431542 (Selleckchem, cat. S1067) and 10 nM gastrin (Tocris, cat. 3006). […]
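Also: viability measured after seven days of drug exposure.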
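For viability, T/C in this document: luminescence signal used as surrogate for viable cell amount; 100% = DMSO vehicle control wells.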

Which results are given for `CC(C)CC(NC(=O)C(Cc1ccccc1)NC(=O)c1cnccn1)B(O)O` (configuration not stated) + CN1CCN(c2cc(C(=O)Nc3cc4cc(-c5cnn(C)c5)ccc4cn3)ccn2)CC1?
IC50 (second compound 0.0316 µM): 2.02 nM; IC50 (second compound 0.1 µM): 1.26 nM; IC50 (second compound 0.316 µM): < 0.949 nM; IC50 (second compound 1 µM): < 0.949 nM; IC50 (second compound 3.16 µM): < 0.949 nM; IC50 (second compound 10 µM): < 0.949 nM; viability, T/C (second compound 0.0316 µM, first compound 0.000949 µM): 110%; viability, T/C (second compound 0.0316 µM, first compound 0.003 µM): 18.9%; viability, T/C (second compound 0.0316 µM, first compound 0.00949 µM): 0.44%; viability, T/C (second compound 0.0316 µM, first compound 0.03 µM): 0.32%; viability, T/C (second compound 0.0316 µM, first compound 0.0949 µM): 0.25%; viability, T/C (second compound 0.0316 µM, first compound 0.3 µM): 1.03%; viability, T/C (second compound 0.1 µM, first compound 0.000949 µM): 59.4%; viability, T/C (second compound 0.1 µM, first compound 0.003 µM): 20.9%; viability, T/C (second compound 0.1 µM, first compound 0.00949 µM): 0.36%; viability, T/C (second compound 0.1 µM, first compound 0.03 µM): 0.27%; viability, T/C (second compound 0.1 µM, first compound 0.0949 µM): 0.22%; viability, T/C (second compound 0.1 µM, first compound 0.3 µM): 0.23%; viability, T/C (second compound 0.316 µM, first compound 0.000949 µM): 11.4%; viability, T/C (second compound 0.316 µM, first compound 0.003 µM): 11.6%; viability, T/C (second compound 0.316 µM, first compound 0.00949 µM): 0.29%; viability, T/C (second compound 0.316 µM, first compound 0.03 µM): 0.17%; viability, T/C (second compound 0.316 µM, first compound 0.0949 µM): 0.2%; viability, T/C (second compound 0.316 µM, first compound 0.3 µM): 0.16%; viability, T/C (second compound 1 µM, first compound 0.000949 µM): 0.26%; viability, T/C (second compound 1 µM, first compound 0.003 µM): 0.22%; viability, T/C (second compound 1 µM, first compound 0.00949 µM): 0.57%; viability, T/C (second compound 1 µM, first compound 0.03 µM): 0.12%; viability, T/C (second compound 1 µM, first compound 0.0949 µM): 0.15%; viability, T/C (second compound 1 µM, first compound 0.3 µM): 0.15%; viability, T/C (second compound 3.16 µM, first compound 0.000949 µM): 1.04%; viability, T/C (second compound 3.16 µM, first compound 0.003 µM): 0.22%; viability, T/C (second compound 3.16 µM, first compound 0.00949 µM): 0.34%; viability, T/C (second compound 3.16 µM, first compound 0.03 µM): 0.09%; viability, T/C (second compound 3.16 µM, first compound 0.0949 µM): 1.55%; viability, T/C (second compound 3.16 µM, first compound 0.3 µM): 0.25%; viability, T/C (second compound 10 µM, first compound 0.000949 µM): 0.63%; viability, T/C (second compound 10 µM, first compound 0.003 µM): 0.26%; viability, T/C (second compound 10 µM, first compound 0.00949 µM): 0.23%; viability, T/C (second compound 10 µM, first compound 0.03 µM): 0.18%; viability, T/C (second compound 10 µM, first compound 0.0949 µM): 1.16%; viability, T/C (second compound 10 µM, first compound 0.3 µM): 1.04%
